# Reference: PubChem BioAssay AID2060912 (Molecular Pharmacology Branch, DTP, NCI, 2025)
# Tested on: HUVEC/MSC spheroids viability
# Experiment: Human HUVEC/MSC cell line growth inhibition [KRAS2];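 as to viability, T/C: percent of DMSO vehicle control luminescence so 100% = untreated viability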
# Conditions: for IC50: curve of first compound; for viability, T/C: stronger effect = lower value
# Method in brief: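 Endothelial cells (HUVEC) plus mesenchymal stem cells, cultured at 37 °C/5% CO2 and assembled into spheroids without cancer cells, served as a stromal control. Drug pairs and single agents spanned half-log ranges anchored to clinical Cmax.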
# [1] = second compound 0.0316 µM, first compound 0.0316 µM
# [2] = second compound 0.0316 µM, first compound 0.1 µM
# [3] = second compound 0.1 µM, first compound 0.0316 µM
# [4] = second compound 0.1 µM, first compound 0.1 µM
# [5] = second compound 0.316 µM, first compound 0.0316 µM
# [6] = second compound 0.316 µM, first compound 0.1 µM
# [7] = second compound 1 µM, first compound 0.0316 µM
# [8] = second compound 1 µM, first compound 0.1 µM
# [9] = second compound 3.16 µM, first compound 0.0316 µM
# [10] = second compound 3.16 µM, first compound 0.1 µM
# [11] = second compound 10 µM, first compound 0.0316 µM
# [12] = second compound 10 µM, first compound 0.1 µM
structure (smiles),measurement,setting,value
CC(C)NCC(C(=O)N1CCN(c2ncnc3c2C(C)CC3O)CC1)c1ccc(Cl)cc1 (centres undefined) + CNCc1ccccc1-c1csc(C(C)Nc2nc(C)nc3cc(OC)c(OC)cc23)c1,IC50,second compound 0.0316 µM,> 10000 nM
same,IC50,second compound 0.1 µM,> 10000 nM
same,IC50,second compound 0.316 µM,> 10000 nM
same,IC50,second compound 1 µM,> 10000 nM
same,IC50,second compound 3.16 µM,> 10000 nM
same,IC50,second compound 10 µM,< 31.6 nM
same,"viability, T/C",[1],95.5%
same,"viability, T/C",[2],108%
same,"viability, T/C","second compound 0.0316 µM, first compound 0.316 µM",98.5%
same,"viability, T/C","second compound 0.0316 µM, first compound 1 µM",70.2%
same,"viability, T/C","second compound 0.0316 µM, first compound 3.16 µM",69%
same,"viability, T/C","second compound 0.0316 µM, first compound 10 µM",64.2%
same,"viability, T/C",[3],94.8%
same,"viability, T/C",[4],97.8%
same,"viability, T/C","second compound 0.1 µM, first compound 0.316 µM",75.6%
same,"viability, T/C","second compound 0.1 µM, first compound 1 µM",70.4%
same,"viability, T/C","second compound 0.1 µM, first compound 3.16 µM",58.1%
same,"viability, T/C","second compound 0.1 µM, first compound 10 µM",54.1%
same,"viability, T/C",[5],82.2%
same,"viability, T/C",[6],106%
same,"viability, T/C","second compound 0.316 µM, first compound 0.316 µM",83.3%
same,"viability, T/C","second compound 0.316 µM, first compound 1 µM",73.5%
same,"viability, T/C","second compound 0.316 µM, first compound 3.16 µM",56.2%
same,"viability, T/C","second compound 0.316 µM, first compound 10 µM",50.8%
same,"viability, T/C",[7],84.6%
same,"viability, T/C",[8],106%
same,"viability, T/C","second compound 1 µM, first compound 0.316 µM",103%
same,"viability, T/C","second compound 1 µM, first compound 1 µM",71.3%
same,"viability, T/C","second compound 1 µM, first compound 3.16 µM",56.5%
same,"viability, T/C","second compound 1 µM, first compound 10 µM",51.6%
same,"viability, T/C",[9],108%
same,"viability, T/C",[10],93.2%
same,"viability, T/C","second compound 3.16 µM, first compound 0.316 µM",89.4%
same,"viability, T/C","second compound 3.16 µM, first compound 1 µM",79.5%
same,"viability, T/C","second compound 3.16 µM, first compound 3.16 µM",62.5%
same,"viability, T/C","second compound 3.16 µM, first compound 10 µM",57.7%
same,"viability, T/C",[11],0.38%
same,"viability, T/C",[12],0.44%
same,"viability, T/C","second compound 10 µM, first compound 0.316 µM",0.45%
same,"viability, T/C","second compound 10 µM, first compound 1 µM",0.42%
same,"viability, T/C","second compound 10 µM, first compound 3.16 µM",0.39%
same,"viability, T/C","second compound 10 µM, first compound 10 µM",0.26%
CC(C)n1nc(-c2ccc3oc(N)nc3c2)c2c(N)ncnc21 + CNCc1ccccc1-c1csc(C(C)Nc2nc(C)nc3cc(OC)c(OC)cc23)c1,IC50,second compound 0.0316 µM,3.15 nM
same,IC50,second compound 0.1 µM,3.11 nM
same,IC50,second compound 0.316 µM,7.12 nM
same,IC50,second compound 1 µM,7.98 nM
same,IC50,second compound 3.16 µM,7.84 nM
same,IC50,second compound 10 µM,< 0.316 nM
same,"viability, T/C","second compound 0.0316 µM, first compound 0.000316 µM",85.2%
same,"viability, T/C","second compound 0.0316 µM, first compound 0.001 µM",69%
same,"viability, T/C","second compound 0.0316 µM, first compound 0.00316 µM",50.2%
same,"viability, T/C","second compound 0.0316 µM, first compound 0.01 µM",44%
same,"viability, T/C",[1],45.5%
same,"viability, T/C",[2],44.4%
same,"viability, T/C","second compound 0.1 µM, first compound 0.000316 µM",84.8%
same,"viability, T/C","second compound 0.1 µM, first compound 0.001 µM",64.6%
same,"viability, T/C","second compound 0.1 µM, first compound 0.00316 µM",49.9%
same,"viability, T/C","second compound 0.1 µM, first compound 0.01 µM",45.6%
same,"viability, T/C",[3],46.4%
same,"viability, T/C",[4],45%
same,"viability, T/C","second compound 0.316 µM, first compound 0.000316 µM",81.9%
same,"viability, T/C","second compound 0.316 µM, first compound 0.001 µM",66.5%
same,"viability, T/C","second compound 0.316 µM, first compound 0.00316 µM",50.5%
same,"viability, T/C","second compound 0.316 µM, first compound 0.01 µM",51.9%
same,"viability, T/C",[5],45.4%
same,"viability, T/C",[6],37.6%
same,"viability, T/C","second compound 1 µM, first compound 0.000316 µM",70.1%
same,"viability, T/C","second compound 1 µM, first compound 0.001 µM",52.5%
same,"viability, T/C","second compound 1 µM, first compound 0.00316 µM",56.2%
same,"viability, T/C","second compound 1 µM, first compound 0.01 µM",50.6%
same,"viability, T/C",[7],47%
same,"viability, T/C",[8],37.5%
same,"viability, T/C","second compound 3.16 µM, first compound 0.000316 µM",89.7%
same,"viability, T/C","second compound 3.16 µM, first compound 0.001 µM",79%
same,"viability, T/C","second compound 3.16 µM, first compound 0.00316 µM",67.5%
same,"viability, T/C","second compound 3.16 µM, first compound 0.01 µM",40.7%
same,"viability, T/C",[9],50.2%
same,"viability, T/C",[10],36.5%
same,"viability, T/C","second compound 10 µM, first compound 0.000316 µM",0.36%
same,"viability, T/C","second compound 10 µM, first compound 0.001 µM",0.39%
same,"viability, T/C","second compound 10 µM, first compound 0.00316 µM",0.37%
same,"viability, T/C","second compound 10 µM, first compound 0.01 µM",0.37%
same,"viability, T/C",[11],0.42%
same,"viability, T/C",[12],0.4%
